Data reported in patent US7319103B2, “Non-imidazole tertiary amines as histamine 3 receptor inhibitors for the treatment of cognitive and sleep disorders, obesity and other CNS disorders” (Athersys, Inc., priority 2004, dated 2008).

Tests used:
human H3 receptor = biological target: T1, human H3 receptor (Homo sapiens, UniProt Q9Y5N1); test: Radioligand competition binding assay, human H3 receptor (HT1080 cell membranes); conditions: competition binding vs [3H]Nα-methylhistamine (~2 nM), membranes of HT1080 cells expressing human H3 receptor
T1 construct: Expression of this receptor was provided by utilization of the RAGE methodology; endogenous in cells; host or cells: HT1080 (human fibrosarcoma) cells, H3 expression switched on by RAGE; co-transfected with chimeric G-protein Gqαi5
T1 sequence (Q9Y5N1 whole entry): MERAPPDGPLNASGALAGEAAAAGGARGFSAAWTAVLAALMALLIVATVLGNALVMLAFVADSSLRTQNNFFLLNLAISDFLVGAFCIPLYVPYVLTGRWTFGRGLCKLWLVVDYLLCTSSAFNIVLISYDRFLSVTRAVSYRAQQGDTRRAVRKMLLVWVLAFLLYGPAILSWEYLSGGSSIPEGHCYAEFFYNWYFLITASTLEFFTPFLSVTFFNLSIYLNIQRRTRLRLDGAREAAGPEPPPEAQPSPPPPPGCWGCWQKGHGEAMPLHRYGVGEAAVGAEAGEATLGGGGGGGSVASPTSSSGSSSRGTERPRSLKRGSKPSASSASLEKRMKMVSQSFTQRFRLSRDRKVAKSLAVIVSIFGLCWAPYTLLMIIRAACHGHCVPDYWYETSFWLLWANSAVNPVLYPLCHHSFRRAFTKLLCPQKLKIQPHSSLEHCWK
Protocol: (§1) Representative compounds of the present invention that were prepared by the procedures of the Examples were evaluated in binding assays against cells expressing the mouse and human H3 receptor by the following procedure.
An HT1080 cell line was produced that expresses the human H3 receptor. Expression of this receptor was provided by utilization of the RAGE methodology (Harrington et al., 2001) Nature Biotechol. 19:440-5. This cell line was transfected with the chimeric G-protein Gqαi5 (Conklin et al., 1993) Nature 363:274-6 to facilitate assessment of receptor activation through the analysis of intercellular Ca^++ levels using a fluorescence assay. The HT1080 cells expressing human histamine H3 receptor and Gqαi5 were grown in alpha-modified MEM containing 10% FBS, 3 ug/ml puromycin, 7 ug/ml blasticidin, and 3.2 uM methotrexate at 37° C. in 5% CO2/95% atmosphere.
(§2) Cells were washed with cold PBS buffer twice, scraped off the plates, and centrifuged at 1000×g for 5 minutes. Cells were resuspended in ice-cold buffer of 10 mM Tris, pH 7.4, 5 mM EDTA, protease inhibitor cocktail tablets (Roche Molecular Biochemicals) and incubated on ice for 10 minutes. The mixture was then homogenized with a dounce homogenizer or a polytron tissue grinder and centrifuged at 1000×g for 10 min at 4° C. The supernatant was centrifuged at 32,000×g for 30 min at 4° C. The membrane pellet was resuspended in a buffer of 50 mM Tris, pH 7.4 with protease inhibitor cocktail tablets and stored at −80° C. until use. Protein concentration was determined by the methods of Bradford.
(§3) Membranes were homogenized in buffer containing 50 mM Tris/HCl, 1 mM EDTA pH 7.4, and protease inhibitor cocktail tablets. Dissociation constants of radioligand (KD values) and maximum binding sites (Bmax) were determined in saturation binding experiments. Ki and IC50 were determined in competition binding assays using a fixed amount of radioligand.
(§4) Saturation binding assays were carried out in 96-well polypropylene plates in triplicate or quadruplicate. Reaction mixtures contained 100 μl of membrane suspension (˜100 μg/well), 50 μl of 4% DMSO, 50 μl of increasing amounts of [^3H]N^α-methylhistamine (final concentration of 0.01-20 nM). Nonspecific binding was defined with 10 uM clobenpropit. Competition binding assays were performed in a reaction mixture containing 100 μl of membrane suspension, 50 μl of [H]N^α-methylhistamine (final concentration of ˜2 nM), and 50 μl compounds. […] Incubations were carried out for 1.5 hours at room temperature. Reactions were terminated by rapid filtration over glass fibre GF/C filters (Perkin Elmers, MA) that had been presoaked in 0.3% PEI, using a Brandel cell harvester. The filters were washed with 500 ml of ice-cold buffer containing 50 mM Tris-HCl, pH 7.4, and were subsequently dried, impregnated with Meltilex wax scintillate (Perkin Elmers, MA) and counted with a Betaplate scintillation counter (Perkin Elmers, MA).
(§5) All data were analyzed by nonlinear least square curve fitting using Prism 4.0 software. The KD for [^3H]N^α-methylhistamine and the Bmax were derived from equation RL=RfL/(KD+L). RL is concentration of receptor-bound ligand at equilibrium, L is the free ligand concentration, Rf is the total receptor concentration. For competition binding experiments, IC50 (the concentration of compound producing 50% inhibition of specific binding) was derived from fitting to a 4-parameter logistic equation. Apparent Ki values were calculated using the Cheng-Prussof equation of Ki=IC50/(1+(L)/Kd), L is the ligand concentration. Agonist stimulation and antagonist inhibition in FLIPR were fitted to sigmoidal dose response using equation Y=Bottom+(Top-Bottom)/(1+10^((LogEC50-X))), X is the logarithm of concentration of compounds. Y is the response.

mouse H3 receptor = mouse H3 receptor (Mus musculus, UniProt P58406); test: Radioligand competition binding assay, mouse H3 receptor; conditions: competition binding vs [3H]Nα-methylhistamine (~2 nM), membranes of cells expressing mouse H3 receptor
mouse H3 receptor, sequence (P58406 whole entry): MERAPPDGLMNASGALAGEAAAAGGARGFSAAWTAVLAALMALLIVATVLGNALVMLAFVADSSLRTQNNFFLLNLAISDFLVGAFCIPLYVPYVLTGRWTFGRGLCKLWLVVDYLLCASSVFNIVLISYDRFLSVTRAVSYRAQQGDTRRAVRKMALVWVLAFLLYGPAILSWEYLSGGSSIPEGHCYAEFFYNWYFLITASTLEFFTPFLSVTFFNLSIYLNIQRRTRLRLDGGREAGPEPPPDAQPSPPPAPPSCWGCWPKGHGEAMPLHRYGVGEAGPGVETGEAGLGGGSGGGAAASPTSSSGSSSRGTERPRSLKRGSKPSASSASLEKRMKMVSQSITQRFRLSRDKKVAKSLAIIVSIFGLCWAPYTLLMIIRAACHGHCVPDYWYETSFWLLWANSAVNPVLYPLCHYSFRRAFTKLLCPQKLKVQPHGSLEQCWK
Protocol: as §1, §2, §3, §4, §5

Compound | Ki (human H3 receptor) [µM] | Ki (mouse H3 receptor) [µM]
COC[C@@H]1CCCN1CCc1cc2cc(-c3c4c(nc5ccnn35)CCC4)ccc2o1 [8-{2-[2-(2-(S)-Methoxymethyl-pyrrolidin-1-yl)-ethyl]-benzofuran-5-yl}-6,7-dihydro-5H-1,4,8a-triaza-s-indacene] | < 0.05 | < 0.05
CC1CCCN1CCc1cc2cc(-c3c4c(nc5ccnn35)CCC4)ccc2o1 (stereo not shown) [8-{2-[2-(2-Methyl-pyrrolidin-1-yl)-ethyl]-benzofuran-5-yl}-6,7-dihydro-5H-1,4,8a-triaza-s-indacene] | < 0.05 | < 0.05
c1cc(OCCCN2CCCC2)cc(-c2c3c(nc4ccnn24)CCCCC3)c1 [10-[3-(3-Pyrrolidin-1-yl-propoxy)-phenyl]-6,7,8,9-tetrahydro-5H-1,4,10a-triaza-cyclohepta[f]indene] | < 0.5 | < 5
CN(CCCOc1ccc(-c2c3c(nc4ccnn24)CCCCC3)cc1)Cc1ccco1 [Furan-2-ylmethyl-methyl-{3-[4-(6,7,8,9-tetrahydro-5H-1,4,10a-triaza-cyclohepta[f]inden-10-yl)-phenoxy]-propyl}-amine] | < 5 | < 0.5
COC[C@H]1CCCN1CCc1cc2cc(-c3c4c(nc5ccnn35)CCC4)ccc2o1 [8-{2-[2-(R)-(2-Methoxymethyl-pyrrolidin-1-yl)-ethyl]-benzofuran-5-yl}-6,7-dihydro-5H-1,4,8a-triaza-s-indacene] | < 0.5 | < 0.5
C[C@@H]1CCCN1CCCOc1ccc(-c2c3c(nc4ccnn24)CCCCC3)cc1 [10-{4-[3-(2-(R)-Methyl-pyrrolidin-1-yl)-propoxy]-phenyl}-6,7,8,9-tetrahydro-5H-1,4,10a-triaza-cyclohepta[f]indene] | < 0.05 | < 0.05
c1cc2nc3c(c(-c4ccc5oc(CCN6CCCC6)cc5c4)n2n1)CCC3 [8-[2-(2-Pyrrolidin-1-yl-ethyl)-benzofuran-5-yl]-6,7-dihydro-5H-1,4,8a-triaza-s-indacene] | < 0.05 | < 0.5
c1cc2nc3c(c(-c4ccc5oc(CCN6CCOCC6)cc5c4)n2n1)CCCC3 [9-[2-(2-Morpholin-4-yl-ethyl)-benzofuran-5-yl]-5,6,7,8-tetrahydro-pyrazolo[5,1-b]quinazoline] | < 0.05 | < 0.5
c1cc(OCCCN2CCCCC2)cc(-c2c3c(nc4ccnn24)CCCCC3)c1 [10-[3-(3-Piperidin-1-yl-propoxy)-phenyl]-6,7,8,9-tetrahydro-5H-1,4,10a-triaza-cyclohepta[f]indene] | < 0.5 | < 5
CC1CCCN1CCc1cc2cc(-c3c4c(nc5ccnn35)CCCC4)ccc2o1 (stereo not shown) [9-{2-[2-(2-Methyl-pyrrolidin-1-yl)-ethyl]-benzofuran-5-yl}-5,6,7,8-tetrahydro-pyrazolo[5,1-b]quinazoline] | < 0.05 | < 0.5
c1cc2nc3c(c(-c4ccc5oc(CCN6CCCCC6)cc5c4)n2n1)CCC3 [8-[2-(2-Piperidin-1-yl-ethyl)-benzofuran-5-yl]-6,7-dihydro-5H-1,4,8a-triaza-s-indacene] | < 0.05 | < 0.5
c1ccc2c(-c3ccc(OCCCN4CCCC4)cc3)c3c(nc2c1)CCCCC3 [11-[4-(3-Pyrrolidin-1-yl-propoxy)-phenyl]-7,8,9,10-tetrahydro-6H-cyclohepta[b]quinoline] | < 0.05 | < 0.5
c1cc2nc3c(c(-c4ccc5oc(CCN6CCCCC6)cc5c4)n2n1)CCCC3 [9-[2-(2-Piperidin-1-yl-ethyl)-benzofuran-5-yl]-5,6,7,8-tetrahydro-pyrazolo[5,1-b]quinazoline] | < 0.05 | < 5
CC1CCCN1CCCOc1ccc(-c2c3c(nc4ccnn24)COC3)cc1 (stereo not shown) [8-{4-[3-(2-Methyl-pyrrolidin-1-yl)-propoxy]-phenyl}-5H,7H-6-oxa-1,4,8a-triaza-s-indacene] | < 0.05 | < 0.05
c1cc2nc3c(c(-c4ccc(OCCCN5CCOCC5)cc4)n2n1)CCC3 [8-[4-(3-Morpholin-4-yl-propoxy)-phenyl]-6,7-dihydro-5H-1,4,8a-triaza-s-indacene] | < 0.05 | < 0.5
c1cc2nc3c(c(-c4ccc(OCCCN5CCCC5)cc4)n2n1)CCCC3 [9-[4-(3-Pyrrolidin-1-yl-propoxy)-phenyl]-5,6,7,8-tetrahydro-pyrazolo[5,1-b]quinazoline] | < 0.05 | < 0.05
CC1CCCN1CCCOc1ccc(-c2c3c(nc4ccnn24)CCCCC3)cc1 (stereo not shown) [10-{4-[3-(2-Methyl-pyrrolidin-1-yl)-propoxy]-phenyl}-6,7,8,9-tetrahydro-5H-1,4,10a-triaza-cyclohepta[f]indene] | < 0.05 | < 0.05
c1cc2nc3c(c(-c4ccc(OCCCN5CCCCC5)cc4)n2n1)CCC3 [8-[4-(3-Piperidin-1-yl-propoxy)-phenyl]-6,7-dihydro-5H-1,4,8a-triaza-s-indacene] | < 0.05 | < 0.05

Results, then the compound that gave them:

Ki (human H3 receptor) [µM] | Ki (mouse H3 receptor) [µM] | Compound
< 0.05 | < 0.05 | c1cc2nc3c(c(-c4ccc(OCCCN5CCCC5)cc4)n2n1)CCC3 [8-[4-(3-Pyrrolidin-1-yl-propoxy)-phenyl]-6,7-dihydro-5H-1,4,8a-triaza-s-indacene]
< 0.05 | < 0.5 | CN(C)CCCOc1ccc(-c2c3c(nc4ccnn24)CCC3)cc1 [{3-[4-(6,7-Dihydro-5H-1,4,8a-triaza-s-indacen-8-yl)-phenoxy]-propyl}-dimethyl-amine]
< 0.05 | < 0.05 | c1cc2nc3c(c(-c4ccc(OCCCN5CCCCC5)cc4)n2n1)CCCC3 [9-[4-(3-Piperidin-1-yl-propoxy)-phenyl]-5,6,7,8-tetrahydro-pyrazolo[5,1-b]quinazoline]
< 0.05 | < 0.5 | C[C@@H]1CC[C@@H](C)N1CCCOc1ccc(-c2c3c(nc4ccnn24)CCCCC3)cc1 [10-{4-[3-(2,5-(R,R)-Dimethyl-pyrrolidin-1-yl)-propoxy]-phenyl}-6,7,8,9-tetrahydro-5H-1,4,10a-triaza-cyclohepta[f]indene]
< 0.05 | < 0.05 | C[C@@H]1CCCN1CCCOc1ccc(-c2c3c(nc4ccnn24)CCCC3)cc1 [9-{4-[3-(2-(R)-Methyl-pyrrolidin-1-yl)-propoxy]-phenyl}-5,6,7,8-tetrahydro-pyrazolo[5,1-b]quinazoline]
< 0.5 | < 5 | c1cc2nc3c(c(-c4ccc5oc(CCN6CCCC6)cc5c4)n2n1)CCCC3 [9-[2-(2-Pyrrolidin-1-yl-ethyl)-benzofuran-5-yl]-5,6,7,8-tetrahydro-pyrazolo[5,1-b]quinazoline]
< 0.05 | < 0.5 | CCN(CC)CCCOc1ccc(-c2c3c(nc4ccnn24)CCCCC3)cc1 [Diethyl-{3-[4-(6,7,8,9-tetrahydro-5H-1,4,10a-triaza-cyclohepta[f]inden-10-yl)-phenoxy]-propyl}-amine]
< 0.05 | < 0.5 | c1ccc2c(-c3ccc(OCCCN4CCCC4)cc3)c3c(nc2c1)CCCC3 [9-[4-(3-Pyrrolidin-1-yl-propoxy)-phenyl]-1,2,3,4-tetrahydro-acridine]
